One may read the Ki as the equilibrium dissociation constant of an inhibitor or competing ligand from its target.

Assay [1] concerns Rat Brain A1 and A2 -Receptors. The settings on record: radioligand binding, Table I; cited from earlier work.
Assay [2] has as its system cultured chick ventricular myocytes. As to the kind of experiment: Simulated ischemia (hypoxia and glucose deprivation) injury in cultured ventricular myocytes, percentage of cells killed. In kind it is cell-based. The following applies: for number of cells killed; agent present during prolonged ischemia after MLA pretreatment vs vehicle pretreatment: MLA 300 ng/ml for 4 h, 24 h prior, agent present during 90 min simulated ischemia; for percentage of myocytes killed; preconditioning effect of the agent after MLA pretreatment vs vehicle pretreatment: MLA (30 or 300 ng/ml) 24 h prior to 5 min exposure to the agent, 10 min agent-free, then 90 min simulated ischemia. As to the method:
Ventricular cells were cultured from chick embryos 14 days in ovo (Spafas Inc., Storrs, Conn.) as previously described (16, 23). Cells were cultivated in a humidified 5% CO2 -95% air mixture at 37 C. […] The medium was changed to a HEPES-buffered medium containing (mM) 139 NaCl, 4.7 KCl, 0.5 MgCl2, 0.9 CaCl2, 5 HEPES (N-2-hydroxyethylpiperazine-N'-2-ethanesulfonic acid) and 2% fetal bovine serum, pH 7.4, 37 C. before exposing the myocytes to the various conditions at 37 C. Control myocytes were maintained in HEPES-buffered medium under room air. Hypoxia and glucose deprivation were used to induce and simulate ischemia in the cultured cells. Hypoxia was produced by placing the cells in a hypoxic incubator (NuAire) where O2 was replaced by N2 as previously described (16,23).
The extent of hypoxia-induced injury to the ventricular cell was quantitatively determined by the percentages of cells killed. To quantitate the % of cells killed, cells were exposed to a trypsin-EDTA Hanks' balanced salt solution for 10 minutes for detachment after the various treatment, followed by centrifugation (300×g for 10 minutes) and resuspension in culture media for counting in a hemocytometer. Only live cells sedimented and the cells counted represented those that survived (46). None of the sedimented cells subsequently counted included trypan blue. […] There was no protein in the culture media following a second 300×g centrifugation of resuspended cells previously treated with trypsin-EDTA.
The percentage of cells killed was calculated as the number of cells obtained from the control group (representing cells not subjected to any hypoxia or drug treatment) minus the number of cells from the treatment group divided by number of cells in control group multiplied by 100%. […]
In this experiment, myocytes were treated with either the vehicle (0.04% propylene glycol, 0.01% ethyl alcohol) or MLA 24 hours prior to a 5 minute exposure to 10 μM adenosine. Adenosine was removed by replacement of the culture medium with adenosine-free medium, and the cells were exposed to normal room air O2 for 10 minutes, followed by 90 minutes of simulated ischemia treatment.
The experimental protocol utilized in these studies entailed pretreatment of myocytes with MLA for a 4 hour period 24 hours prior to exposure of the cardiac myocytes to 90 minutes of simulated ischemia. During this 90 minute simulated ischemia period, several cardioprotective agents were administered individually to cells and their protective effects were assessed.
Additional experiments were performed to assess the differences in cardioprotection observed when MLA was administered as the second cardioprotective agent and an adenosine agonist, KATP channel opener or protein kinase C activator was administered as the first cardioprotective agent. The experiments were performed as follows: Cardiac myocytes were exposed to the first cardioprotective agent for 5 minutes and the agent was removed. Cells were then exposed to a period of simulated ischemia in the presence or absence of 300 ng/ml of MLA. The percentage of cells killed by simulated ischemia alone was 27±2% (n=9) in the absence of any treatment with any cardioprotective agent. When MLA was present during the simulated ischemia, the percentage of cells killed was reduced from 27±2% to 14±1.2%. When cells were exposed to 5 minutes of 10 μM pinacidil, a KATP channel opener followed by exposure to simulated ischemia (in the absence of MLA), the percentage of cells killed was 12.3±1. When the pinacidil-treated cells were exposed to simulated ischemia in the presence of MLA, the percentage of cells killed was reduced from 12.3±1% to 6.3±1.2% (n=3). When cells were exposed to 5 minutes of 1 μM PMA, a PKC activator, followed by exposure to simulated ischemia (in the absence of MLA), the percentage of cells killed was 14±1. […]

The target of a further assay is A1 adenosine receptor. The following applies: Table II; cited from earlier work.
Another assay deals with A2a adenosine receptor. The following applies: Table II; cited from earlier work.
For another assay, the target named is A3 adenosine receptor. The settings on record: Table II; cited from earlier work.
The mark [3] stands for this setting: 5 min exposure to first agent (10 μM pinacidil, 1 μM PMA or 10 μM adenosine), removed, then simulated ischemia in the absence of MLA.
Where [4] appears, read: 5 min exposure to first agent (10 μM pinacidil, 1 μM PMA or 10 μM adenosine), removed, then simulated ischemia in the presence of 300 ng/ml MLA.

“Also recorded” adds a separate entry of the source.

As to `COc1ccccc1/C=C/c1nc2c(c(=O)n(C)c(=O)n2C)n1C` [17b], the “A1 /A2 ratio” value in assay [1] is reported as 18.

Consider `COc1cccc(/C=C/c2nc3c(c(=O)n(C)c(=O)n3C)n2C)c1` [19b], for which, in assay [1], the “A1 /A2 ratio” value is given as 64.

On to `Cn1c(=O)c2c(nc(/C=C/c3cccc(C(F)(F)F)c3)n2C)n(C)c1=O` [20b], for which the “A1 /A2 ratio” value in assay [1] is given as 25. As to `Cn1c(=O)c2c(nc(/C=C/c3cccc([N+](=O)[O-])c3)n2C)n(C)c1=O` [21b], the “A1 /A2 ratio” value in assay [1] is given as 11. With `Cn1c(=O)c2c(nc(/C=C/c3cccc(N)c3)n2C)n(C)c1=O` [22b], in assay [1], the “A1 /A2 ratio” value was 30. For `Cn1c(=O)c2c(nc(/C=C/c3cccc(F)c3)n2C)n(C)c1=O` [27b], the “A1 /A2 ratio” value in assay [1] was 190.

For the compound `COc1ccc(/C=C/c2nc3c(c(=O)n(C)c(=O)n3C)n2C)cc1` [29b], the “A1 /A2 ratio” value in assay [1] is 44. Consider `COc1ccc(/C=C/c2nc3c(c(=O)n(C)c(=O)n3C)n2C)cc1OC` [32b], for which the “A1 /A2 ratio” value in assay [1] is reported as 70. As to `COc1cc(/C=C/c2nc3c([nH]2)c(=O)n(C)c(=O)n3C)cc(OC)c1` [33a], the “A1 /A2 ratio” value in assay [1] is 25. As to `COc1cc(/C=C/c2nc3c(c(=O)n(C)c(=O)n3C)n2C)cc(OC)c1` [33b], the “A1 /A2 ratio” value in assay [1] was > 200. For the compound `Cn1c(=O)c2c(nc(/C=C/c3cc(F)cc(F)c3)n2C)n(C)c1=O` [34b], the “A1 /A2 ratio” value in assay [1] is 230. Consider `COc1ccc(/C=C/c2nc3c(c(=O)n(C)c(=O)n3C)n2C)c(OC)c1OC` [43b], for which, in assay [1], the “A1 /A2 ratio” value is 34.

With `COc1cc(/C=C/c2nc3c(c(=O)n(C)c(=O)n3C)n2C)cc(OC)c1OC` [44b], in assay [1], the “A1 /A2 ratio” value is given as 70. As to `CCCn1c(=O)c2c(nc(/C=C/c3cc(OC)cc(OC)c3)n2C)n(CCC)c1=O` [53b], in assay [1], the “A1 /A2 ratio” value was 110. `OC[C@H]1O[C@@H](n2cnc3c(NC4CCCC4)nc(Cl)nc32)[C@H](O)[C@@H]1O` [CCPA, 2-chloro-N^6-cyclopentyl-adenosine]: in assay [2], the “number of cells killed; agent present during prolonged ischemia after MLA pretreatment vs vehicle pretreatment” value (“number of cells killed … vs vehicle pretreatment” below) is recorded as “greater reduction in the number of cells killed” and the “percentage of myocytes killed; preconditioning effect of the agent after MLA pretreatment vs vehicle pretreatment” value (“percentage of myocytes killed” below) was “significantly reduced the percentage of myocytes killed; also recorded: enhanced by pretreatment of myocytes with MLA”. Consider `CCNC(=O)[C@H]1O[C@@H](n2cnc3c(NC(=O)Nc4ccccc4C(F)(F)F)ncnc32)[C@H](O)[C@@H]1O` [Compound 4d, N^6-((2-trifluoromethyl)carbamoyl)adenosine-5'uronamide], for which the Ki is 384 nM on A1 adenosine receptor, > 10000 nM on A2a adenosine receptor and 54 nM at A3 adenosine receptor. Consider `CCNC(=O)[C@H]1O[C@@H](n2cnc3c(NC(=O)Nc4cccc(I)c4)ncnc32)[C@H](O)[C@@H]1O` [Compound 4q, N^6-((3-iodophenyl)carbamoyl)adenosine-5'uronamide], for which the inhibition constant (Ki) at A2a adenosine receptor was 3940 nM; on A3 adenosine receptor it was 30 nM. Regarding `CNC(=O)[C@H]1O[C@@H](n2cnc3c(NOc4ccccc4)ncnc32)[C@H](O)[C@@H]1O` [Compound 11, 6-(O-Phenylhydroxylamino)purine-9-beta-ribofuranoside-5'-N-methyluronamide], the Ki at A1 adenosine receptor is 2060 nM; on A2a adenosine receptor, 66300 nM; at A3 adenosine receptor it was 1340 nM. With `CNC(=O)[C@H]1O[C@@H](n2cnc3c(NCc4cccc(I)c4)ncnc32)[C@H](O)[C@@H]1O` [IB-MECA, N^6-(3-iodobenzyl)adenosine-5'-N-methyluronamide], in assay [2], the “number of cells killed … vs vehicle pretreatment” value is listed as “synergistic cardioprotective effect” and the “percentage of myocytes killed” value is recorded as “significantly reduced the percentage of myocytes killed; also recorded: enhanced by pretreatment of myocytes with MLA”.

On to `CCCCCCCCCCCCCC(=O)O[C@@H]1[C@@H](C)[C@@]2(O)[C@@H](C=C(CO)C[C@]3(O)C(=O)C(C)=C[C@@H]23)[C@@H]2C(C)(C)[C@]12OC(C)=O` [PMA, Phorbol 12-myristate 13-acetate], for which the “percentage of cells killed” value is 14±1% in assay [2] (setting [3]) and 10.5±1% in assay [2] (setting [4]). The “percentage of myocytes killed” value in assay [2] is on record as “enhanced by pretreatment with MLA”.

Consider `Nc1ncnc2c1ncn2[C@@H]1O[C@H](CO)[C@@H](O)[C@H]1O` [adenosine], for which the “percentage of cells killed” value in assay [2] (setting [3]) is on record as 12±1.4%; in assay [2] (setting [4]), 7.4±1.2%. In assay [2], the “percentage of myocytes killed” value is “significantly decreased the percentage of myocytes killed”. Turning to `CC(=O)Nc1cccc(/C=C/c2nc3c(c(=O)n(C)c(=O)n3C)n2C)c1` [compound 23], the “A1 /A2 ratio” value in assay [1] is on record as 240. In the case of `Cn1c(=O)c2c(nc(/C=C/c3cccc(NC(=O)CCC(=O)O)c3)n2C)n(C)c1=O` [compound 24], in assay [1], the “A1 /A2 ratio” value is listed as 250.

Consider `Cn1c(=O)c2c(nc(/C=C/c3cccc(NC(=O)OC(C)(C)C)c3)n2C)n(C)c1=O` [compound 25], for which the “A1 /A2 ratio” value in assay [1] is listed as 30. For `Cn1c(=O)c2c(nc(/C=C/c3cccc(N(C(=O)OC(C)(C)C)C(=O)OC(C)(C)C)c3)n2C)n(C)c1=O` [compound 26], the “A1 /A2 ratio” value in assay [1] is recorded as 15. `COc1cc(/C=C/c2nc3c(c(=O)n(C)c(=O)n3C)n2C)cc(OC)c1O` [compound 35]: the “A1 /A2 ratio” value in assay [1] is recorded as 19. Turning to `COc1cc(/C=C/c2nc3c(c(=O)n(C)c(=O)n3C)n2C)cc(OC)c1OC(C)=O` [compound 36], the “A1 /A2 ratio” value in assay [1] is 93.

`COc1cc(/C=C/c2nc3c(c(=O)n(C)c(=O)n3C)n2C)cc(OC)c1OCCCCN` [compound 38]: the “A1 /A2 ratio” value in assay [1] is recorded as 36. Consider `COc1cc(/C=C/c2nc3c(c(=O)n(C)c(=O)n3C)n2C)cc(OC)c1OCCCCNC(=O)OC(C)(C)C` [compound 39], for which, in assay [1], the “A1 /A2 ratio” value is 42. `COc1cc(/C=C/c2nc3c(c(=O)n(C)c(=O)n3C)n2C)cc(OC)c1OC/C=C/CN` [compound 40]: the “A1 /A2 ratio” value in assay [1] is 28. For `COc1cc(/C=C/c2nc3c(c(=O)n(C)c(=O)n3C)n2C)cc(OC)c1OC/C=C/CNC(C)=O` [compound 41], the “A1 /A2 ratio” value in assay [1] is on record as > 50. As to `COc1cc(/C=C/c2nc3c(c(=O)n(C)c(=O)n3C)n2C)cc(OC)c1OC/C=C/CNC(=O)OC(C)(C)C` [compound 42], the “A1 /A2 ratio” value in assay [1] is on record as > 40. For `C=CCn1c(=O)c2c(nc(/C=C/c3cc(OC)c(OC)c(OC)c3)n2C)n(CC=C)c1=O` [compound 46], the “A1 /A2 ratio” value in assay [1] was 13.

In the case of `CC(N/C(=N\C#N)Nc1ccncc1)C(C)(C)C` (stereo not drawn) [pinacidil], in assay [2] (setting [3]), the “percentage of cells killed” value is 12.3±1%. Besides, in assay [2] (setting [4]), the “percentage of cells killed” value was 6.3±1.2%. Also, in assay [2], the “number of cells killed … vs vehicle pretreatment” value is on record as “greater reduction in the number of cells killed” and the “percentage of myocytes killed” value is reported as “enhanced the preconditioning response mediated by pinacidil”.

Regarding Monophosphoryl lipid A [MLA], the “percentage of cells killed” value in assay [2] (300 ng/ml MLA present during simulated ischemia, no first agent, untreated 27±2%) is reported as 14±1.2%. In addition, in assay [2] (MLA 30 and 300 ng/ml for 4 h, 24 h prior to 90 min simulated ischemia, vs untreated, p<0.01), the “percentage of cell death in response to prolonged ischemia” value is reported as “significantly lowered the percentage of cell death”. Besides, the “percentage of cells killed during prolonged ischemia after preconditioning ischemia” value in assay [2] (MLA 4 h pretreatment, 24 h later 5 min preconditioning ischemia, 10 min recovery, 90 min simulated ischemia) is recorded as “dose-dependent reduction in the percentage of cells killed”.

Values taken from patent US6329349A, “Methods for reducing ischemic injury of the heart via the sequential administration of monophosphoryl lipid A and adenosine receptor agents” (priority 2000, dated 2001).
